In patent US20180221362A1, “EZH2 INHIBITORS AND MODULATION OF REGULATORY T-CELL FUNCTION” (Constellation Pharmaceuticals, Inc., priority 2015, published 2018):

Key:
FOXP3 = FOXP3 expression by flow cytometry during Treg differentiation; format: cell-based, human; details: increasing concentrations, vs DMSO control; FIG. 3A
H3K27me3 = H3K27me3 levels in treated FOXP3+ T-cells; format: cell-based, human; details: FIG. 3B
human Treg cells = test: Luminex cytokine assays of day 4 iTreg culture supernatants; format: cell-based; details: day 4 supernatants; FIG. 3C
Excerpt: Luminex cytokine assays. Cytokines were quantified from day 4 cell supernatants using Luminex multiplex assays (HTH17MAG-14K-12, Millipore), as per the manufacturer's protocol.
The transcription factor FOXP3 is known to be an essential regulator of Treg cells, and therefore is important to understand if EZH2 plays any role in its expression.

[1] = system: CT26 mouse colon carcinoma cells; test: In vitro growth/sensitivity of CT26 carcinoma cells; format: cell-based; details: FIG. 9
Excerpt: (§1) We first evaluated whether treatment treatment of CT26 cancer cells would be sensitive to EZH2 ihibition. Protocols using CT26 cancer cells as a model for testing immunotherapy protocols and in studies on host immune response are known.
CD8 T cells are known to be major effectors of anti-tumor efficacy in mice and humans. We also explored immune cell changes beyond what our in vitro experiments had predicted, and found several unanticipated observations. First, natural killer (NK) and NKT cells, also major drivers of anti-tumor activity were increased in Inhibitor 1-treated animals, while reduced in the αPD1 group (FIG. 12). This effect was also clear if groups treated with the EZH2 inhibitor were analyzed together, and against groups not treated with the EZH2 inhibitor (FIG. 7). Second, M2 tumor associated macrophages (TAM), known to be immuno-suppressive, reduced in Inhibitor 1-treated animals, while increased in αPD1-treated animals (FIG. 13). This effect was also observed if groups treated with the EZH2 inhibitor were analyzed together, and against groups not treated with the EZH2 inhibitor (FIG. 8). Similar results were also seen with Inhibitor 4. Growth of CT26 mouse colon carcinoma cells was assessed in the presence of increasing amounts of Inhibitor 4 concentrations. […].

[2] = system: CT26 mouse colon carcinoma cells; test: CT26 allograft transplantation tumor model; format: in vivo; details: BALB/c mice, 21-day treatment; Inhibitor 1 200 mg/kg s.c. BID, PD-1 antibody 200 μg/mouse IP every 3-4 days; FIG. 10
Procedure: (§2) Tumor implantation and dosing. CT26 mouse colon carcinoma cells (ATCC CRL-2638) were expanded in vitro and 1×10^5 cells/mouse were inoculated with 50% Matrigel into the subcutaneous flank region of 6-8 week old female BABL/C mice (Taconic). Mice were randomized once tumors were palpable (>200 mm^3) and dosing was started on the same day. […] Tumors were measured and body weight recorded every 2-3 days.
as §1
CD8 T cells are known to be major effectors of anti-tumor efficacy in mice and humans. We also explored immune cell changes beyond what our in vitro experiments had predicted, and found several unanticipated observations. […] This effect was also clear if groups treated with the EZH2 inhibitor were analyzed together, and against groups not treated with the EZH2 inhibitor (FIG. 7). […] This effect was also observed if groups treated with the EZH2 inhibitor were analyzed together, and against groups not treated with the EZH2 inhibitor (FIG. 8). […] Growth of CT26 mouse colon carcinoma cells was assessed in the presence of increasing amounts of Inhibitor 4 concentrations. […]

[3] = system: tumor-infiltrating immune cells; test: FACS analysis of tumor-infiltrating immune cells in CT26 tumors; format: in vivo, mouse; details: tumors isolated day 22
Procedure: as §2
Isolation and analysis of tumor-infiltrating cells. Tumors were chopped into small pieces, digested with 3 mg/mL collagenase A and 100 μg/mL DNase I at 37° C. for 30 mins, followed by the addition of FBS. The digested tumor mass was filtered using […] filters, spun down and washed with PBS Immune cells were visualized and quantifed by FACS on the BD FACSCanto™ II flow cytometry analyzer (BD Bioscience).
The observed efficacy pictured in FIG. 11 was accompanied by changes in the immune infiltrate present in the tumors. Tumors were isolated from mice upon termination of the study (day 22), digested and stained for immune markers allowing for quantification of immune cell populations by FACS. […] Consistent with the reduced efficacy observed in the αPD1 group, we found increased proliferating Treg cells in this group along with decreased proliferating cytotoxic CD8 cells, especially when compared to the combination group (FIG. 11). This effect was also clear if groups treated with the EZH2 inhibitor were analyzed together, and against groups not treated with the EZH2 inhibitor (FIG. 6).

SMILES: CCS(=O)(=O)N1CCC([C@@H](C)n2c(C)c(C(=O)NCc3c(OC)cc(C)[nH]c3=O)c3ccccc32)CC1 [Inhibitor 1]
- FOXP3 expression (frequencies of FOXP3+ cells) (FOXP3): no impact
- H3K27me3 in the same (FOXP3+) cells (H3K27me3): robustly decreased
- secretion of IFNγ to the culture medium (human Treg cells): dose-dependent increase
- secretion of IL-10 to the culture medium (human Treg cells): dose-dependent increase
- secretion of IL-13 to the culture medium (human Treg cells): dose-dependent increase
- CT26 cell sensitivity in vitro [1]: substantially no CT26 cell sensitivity
- tumor growth inhibition efficacy (CT26 tumor volume) [2]: significantly efficacious
- NKT cells in tumors ([3]; FIG. 12): increased
- natural killer (NK) cells in tumors ([3]; FIG. 12): increased
- M2 tumor associated macrophages (TAM) in tumors ([3]; FIG. 13): reduced
